Laboratory results published in patent publication US20260078122A1, “INDAZOLE COMPOUNDS AS PKMYT1 KINASE INHIBITORS” (Hoffmann-La Roche Inc., priority 2023, published 2026).

Tests used:
[1] = Human hepatocyte stability assay; type: in vitro ADME; conditions: 1 μM compound, 1*10^6 cells/mL, 2-120 min
[2] = GSH adduct screening assay; type: in vitro ADME, human; parameters: key: GSH adducts found (Flag); or not (No Flag); conditions: 20 μM compound, HLM 1 mg/ml, 5 mM GSH, 1 mM NADPH, 60 minutes at 37° C.
[3] = Human microsome stability assay; conditions: 1 μM compound, 0.5 mg/mL liver microsomal protein, 1 mM NADPH, 37° C., 0-30 minutes
[4] = target: T1, recombinant human Myt1 (full length PKMYT1) (Homo sapiens, UniProt Q99640); experiment: ADP-Glo assay (Myt1 kinase activity)
T1 sequence (Q99640 1-499): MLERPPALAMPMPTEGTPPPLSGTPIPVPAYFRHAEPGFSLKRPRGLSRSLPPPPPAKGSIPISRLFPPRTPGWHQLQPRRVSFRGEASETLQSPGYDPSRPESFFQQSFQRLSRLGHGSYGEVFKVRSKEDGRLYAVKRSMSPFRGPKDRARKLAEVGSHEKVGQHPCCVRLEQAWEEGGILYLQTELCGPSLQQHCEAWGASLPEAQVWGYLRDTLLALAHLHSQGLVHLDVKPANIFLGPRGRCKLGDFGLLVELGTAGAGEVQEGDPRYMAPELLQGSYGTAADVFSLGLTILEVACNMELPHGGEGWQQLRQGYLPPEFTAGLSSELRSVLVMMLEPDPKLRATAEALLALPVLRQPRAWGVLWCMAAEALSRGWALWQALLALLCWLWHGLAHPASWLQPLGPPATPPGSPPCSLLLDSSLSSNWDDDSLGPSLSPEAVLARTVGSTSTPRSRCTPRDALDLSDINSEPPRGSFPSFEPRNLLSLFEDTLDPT

Nc1c(-c2ccc(F)c3[nH]ncc23)c2ncc(Cl)cc2[nH]c1=O [Example 001, 3-Amino-7-chloro-4-(7-fluoro-1H-indazol-4-yl)-1H-1,5-naphthyridin-2-one]
Clearance of Human hepatocyte (μL/min/10^6 cell) [1]: 2.1 μL/min/10^6 cell

Cc1cnc2c(-c3ccc(F)c4[nH]ncc34)c(N)c(=O)[nH]c2c1 [Example 002, 3-Amino-4-(7-fluoro-1H-indazol-4-y1)-7-methyl-1H-1,5-naphthyridin-2-one]
Clearance of Human hepatocyte (μL/min/10^6 cell) [1]: 1.3 μL/min/10^6 cell

Cc1cc2[nH]c(=O)c(N)c(-c3ccc(F)c4[nH]ncc34)c2nc1Cl [Example 003, 3-Amino-6-chloro-4-(7-fluoro-1H-indazol-4-yl)-7-methyl-1H-1,5-naphthyridin-2-one]
GSH adduct [2]: No Flag | Clearance of Human microsome [3]: 8.88 mL/min/kg

Nc1c(-c2ccc(F)c3[nH]ncc23)c2ncc(C3CC3)cc2[nH]c1=O [Example 015, 3-Amino-7-cyclopropyl-4-(7-fluoro-1H-indazol-4-yl)-1H-1,5-naphthyridin-2-one]
Clearance of Human hepatocyte (μL/min/10^6 cell) [1]: 2.6 μL/min/10^6 cell | GSH adduct [2]: No Flag | Clearance of Human microsome [3]: 7.03 mL/min/kg

Cc1cc2[nH]c(=O)c(N)c(-c3ccc(F)c4[nH]ncc34)c2nc1C [Example 017, 3-Amino-4-(7-fluoro-1H-indazol-4-yl)-6,7-dimethyl-1H-1,5-naphthyridin-2-one]
Clearance of Human hepatocyte (μL/min/10^6 cell) [1]: 1.6 μL/min/10^6 cell

Cc1cnc2c(-c3ccc(F)c4[nH]ncc34)c(N)c(=O)[nH]c2c1C [Example 054, 3-Amino-4-(7-fluoro-1H-indazol-4-yl)-7,8-dimethyl-1H-1,5-naphthyridin-2-one]
Clearance of Human hepatocyte (μL/min/10^6 cell) [1]: <1 μL/min/10^6 cell

Cc1cc2[nH]c(=O)c(N)c(-c3ccc(F)c4[nH]ncc34)c2nc1C#CC(C)(C)O [Example 070, 3-Amino-4-(7-fluoro-1H-indazol-4-yl)-6-(3-hydroxy-3-methyl-but-1-ynyl)-7-methyl-1H-1,5-naphthyridin-2-one]
Clearance of Human hepatocyte (μL/min/10^6 cell) [1]: 1.4 μL/min/10^6 cell

Cc1c(Cl)cnc2c(-c3ccc(F)c4[nH]ncc34)c(N)c(=O)[nH]c12 [Example 099, 3-Amino-7-chloro-4-(7-fluoro-1H-indazol-4-yl)-8-methyl-1H-1,5-naphthyridin-2-one]
Clearance of Human hepatocyte (μL/min/10^6 cell) [1]: <1 μL/min/10^6 cell | Clearance of Human microsome [3]: 6.15 mL/min/kg | IC50 [4]: < 10 nM

Cc1c(C2CC2)cnc2c(-c3ccc(F)c4[nH]ncc34)c(N)c(=O)[nH]c12 [Example 100, 3-Amino-7-cyclopropyl-4-(7-fluoro-1H-indazol-4-yl)-8-methyl-1H-1,5-naphthyridin-2-one]
Clearance of Human hepatocyte (μL/min/10^6 cell) [1]: <1 μL/min/10^6 cell

[2H]C([2H])([2H])c1cnc2c(-c3ccc(F)c4[nH]ncc34)c(N)c(=O)[nH]c2c1C [Example 101, 3-Amino-4-(7-fluoro-1H-indazol-4-yl)-8-methyl-7-(trideuteriomethyl)-1H-1,5-naphthyridin-2-one]
Clearance of Human hepatocyte (μL/min/10^6 cell) [1]: <1 μL/min/10^6 cell

C#Cc1cnc2c(-c3ccc(F)c4[nH]ncc34)c(N)c(=O)[nH]c2c1C [Example 124, 3-Amino-7-ethynyl-4-(7-fluoro-1H-indazol-4-yl)-8-methyl-1H-1,5-naphthyridin-2-one]
GSH adduct [2]: No Flag | IC50 [4]: < 10 nM

Cc1c(CC(F)(F)F)cnc2c(-c3ccc(F)c4[nH]ncc34)c(N)c(=O)[nH]c12 [Example 133, 3-Amino-4-(7-fluoro-1H-indazol-4-yl)-8-methyl-7-(2,2,2-trifluoroethyl)-1H-1,5-naphthyridin-2-one]
Clearance of Human hepatocyte (μL/min/10^6 cell) [1]: 1.7 μL/min/10^6 cell | IC50 [4]: < 10 nM

COc1cnc2c(-c3ccc(F)c4[nH]ncc34)c(N)c(=O)[nH]c2c1C [Example 136, 3-Amino-4-(7-fluoro-1H-indazol-4-yl)-7-methoxy-8-methyl-1H-1,5-naphthyridin-2-one]
Clearance of Human hepatocyte (μL/min/10^6 cell) [1]: 1.4 μL/min/10^6 cell | Clearance of Human microsome [3]: 6.15 mL/min/kg | IC50 [4]: 17.3 nM

Cc1c([S+](C)[O-])cnc2c(-c3ccc(F)c4[nH]ncc34)c(N)c(=O)[nH]c12 (stereo not drawn) [Example 142, 3-Amino-4-(7-fluoro-1H-indazol-4-yl)-8-methyl-7-methylsulfinyl-1H-1,5-naphthyridin-2-one]
Clearance of Human microsome [3]: 6.15 mL/min/kg | IC50 [4]: 18.4 nM

Cc1c(S(C)(=O)=O)cnc2c(-c3ccc(F)c4[nH]ncc34)c(N)c(=O)[nH]c12 [Example 143, 3-Amino-4-(7-fluoro-1H-indazol-4-yl)-8-methyl-7-methylsulfonyl-1H-1,5-naphthyridin-2-one]
Clearance of Human microsome [3]: 6.15 mL/min/kg | IC50 [4]: 11 nM

Cc1cnc2c(-c3ccc(Cl)c4[nH]ncc34)c(N)c(=O)[nH]c2c1C [Example 146, 3-Amino-4-(7-chloro-1H-indazol-4-yl)-7,8-dimethyl-1H-1,5-naphthyridin-2-one]
Clearance of Human hepatocyte (μL/min/10^6 cell) [1]: 1.2 μL/min/10^6 cell | Clearance of Human microsome [3]: 6.15 mL/min/kg | IC50 [4]: < 10 nM

Cc1nc(Cl)c2c(-c3ccc(F)c4[nH]ncc34)c(N)c(=O)[nH]c2c1C [Example 160, 3-Amino-5-chloro-4-(7-fluoro-1H-indazol-4-yl)-7,8-dimethyl-1H-1,6-naphthyridin-2-one]
GSH adduct [2]: No Flag | IC50 [4]: 11.5 nM

Cc1nc(C#N)c2c(-c3ccc(F)c4[nH]ncc34)c(N)c(=O)[nH]c2c1C [Example 161, 3-Amino-4-(7-fluoro-1H-indazol-4-yl)-7,8-dimethyl-2-oxo-1H-1,6-naphthyridine-5-carbonitrile]
Clearance of Human microsome [3]: 6.15 mL/min/kg | IC50 [4]: 15.5 nM

Nc1c(-c2ccc(F)c3[nH]ncc23)c2c(Cl)nc(C3CC3)cc2[nH]c1=O [Example 163, 3-Amino-5-chloro-7-cyclopropyl-4-(7-fluoro-1H-indazol-4-yl)-1H-1,6-naphthyridin-2-one]
Clearance of Human hepatocyte (μL/min/10^6 cell) [1]: <1 μL/min/10^6 cell | IC50 [4]: < 10 nM

Cc1cnc(Cl)c2c(-c3ccc(F)c4[nH]ncc34)c(N)c(=O)[nH]c12 [Example 164, 3-Amino-5-chloro-4-(7-fluoro-1H-indazol-4-yl)-8-methyl-1H-1,6-naphthyridin-2-one]
Clearance of Human microsome [3]: 6.15 mL/min/kg | IC50 [4]: < 10 nM

Cc1nc(C2CC2)cc2[nH]c(=O)c(N)c(-c3ccc(F)c4[nH]ncc34)c12 [Example 166, 3-Amino-7-cyclopropyl-4-(7-fluoro-1H-indazol-4-yl)-5-methyl-1H-1,6-naphthyridin-2-one]
Clearance of Human microsome [3]: 6.15 mL/min/kg | IC50 [4]: 14.7 nM

N#Cc1nc(C2CC2)cc2[nH]c(=O)c(N)c(-c3ccc(F)c4[nH]ncc34)c12 [Example 167, 3-Amino-7-cyclopropyl-4-(7-fluoro-1H-indazol-4-yl)-2-oxo-1H-1,6-naphthyridine-5-carbonitrile]
Clearance of Human hepatocyte (μL/min/10^6 cell) [1]: <1 μL/min/10^6 cell | Clearance of Human microsome [3]: 6.80 mL/min/kg | IC50 [4]: 14.5 nM

COc1ncc(C)c2[nH]c(=O)c(N)c(-c3ccc(F)c4[nH]ncc34)c12 [Example 172, 3-Amino-4-(7-fluoro-1H-indazol-4-yl)-5-methoxy-8-methyl-1H-1,6-naphthyridin-2-one]
Clearance of Human microsome [3]: 6.20 mL/min/kg | IC50 [4]: 10.9 nM

COc1cnc(C)c2[nH]c(=O)c(N)c(-c3ccc(F)c4[nH]ncc34)c12 [Example 173, 3-Amino-4-(7-fluoro-1H-indazol-4-yl)-5-methoxy-8-methyl-1H-1,7-naphthyridin-2-one]
Clearance of Human hepatocyte (μL/min/10^6 cell) [1]: <1 μL/min/10^6 cell | Clearance of Human microsome [3]: 6.15 mL/min/kg | IC50 [4]: 15.2 nM

Cc1ncc(OC(C)C)c2c(-c3ccc(F)c4[nH]ncc34)c(N)c(=O)[nH]c12 [Example 182, 3-Amino-4-(7-fluoro-1H-indazol-4-yl)-5-isopropoxy-8-methyl-1H-1,7-naphthyridin-2-one]
Clearance of Human microsome [3]: 6.20 mL/min/kg | IC50 [4]: 14.7 nM

Cc1ncc(OCC(F)(F)F)c2c(-c3ccc(F)c4[nH]ncc34)c(N)c(=O)[nH]c12 [Example 183, 3-Amino-4-(7-fluoro-1H-indazol-4-yl)-8-methyl-5-(2,2,2-trifuoroethoxy)-1H-1,7-naphthyridin-2-one]
Clearance of Human hepatocyte (μL/min/10^6 cell) [1]: <1 μL/min/10^6 cell | Clearance of Human microsome [3]: 6.20 mL/min/kg | IC50 [4]: 13.4 nM

CCOc1cnc(C)c2[nH]c(=O)c(N)c(-c3ccc(F)c4[nH]ncc34)c12 [Example 184, 3-Amino-5-ethoxy-4-(7-fluoro-1H-indazol-4-yl)-8-methyl-1H-1,7-naphthyridin-2-one]
Clearance of Human hepatocyte (μL/min/10^6 cell) [1]: 1.3 μL/min/10^6 cell | Clearance of Human microsome [3]: 6.20 mL/min/kg | IC50 [4]: < 10 nM

Cc1ncc(OC(F)F)c2c(-c3ccc(F)c4[nH]ncc34)c(N)c(=O)[nH]c12 [Example 185, 3-Amino-5-(difluoromethoxy)-4-(7-fluoro-1H-indazol-4-yl)-8-methyl-1H-1,7-naphthyridin-2-one]
Clearance of Human microsome [3]: 6.15 mL/min/kg | IC50 [4]: 11.4 nM
